{"source": "paper PMC12610721", "about": "“The Action of Cannabidiol on Doxycycline Cytotoxicity in Human Cells—In Vitro Study” (Molecules, 2025)", "key": {"HepG2 cells [1]": {"system": "HepG2 cells", "assay": "lysosomal activity (NRU assay)", "procedure": "(§1) This innovative study evaluated the effects of cannabidiol (Cannabis sativa L.) on doxycycline-induced toxicity using three cell cultures: neural—SH-SY5Y, liver—HepG2, and kidney—HEK-293. […] A series of cytotoxicity assays included assessments of mitochondrial activity, lysosomal activity, cell membrane integrity, DNA synthesis, and cell proliferation. Based on the obtained results, IC50 values for doxycycline, both in monotherapy and in combination with CBD, were calculated, along with evaluations of ROS, death of cells, and morphology. The interaction between the drug and CBD was further analyzed by the combination index (CI).\n(§2) This method is based on staining viable cells with neutral red, a dye that readily diffuses through the plasma membrane and accumulates in lysosomes. After incubation with the test compounds, the medium containing the substances was removed, and the cells were washed with PBS. Subsequently, 100 µL/well of neutral red (NR) solution (50 µg/mL) was added and incubated for 3 h. After incubation, the cells were washed again with PBS. The dye retained in viable cells was extracted using a solution of acetic acid, ethanol, and water (1:50:49, v/v/v). After 10 min of shaking, the absorbance of the extracted dye was measured at 540 nm using a Synergy 2 Multi-Mode Microplate Reader (BioTek® Instruments Inc., Winooski, VT, USA), with a blank as reference. Cytotoxicity was expressed as a percentage relative to the negative control.\n(§3) To determine the types of interaction that occur when cells are exposed to combinations of DOX and CBD, the method established by Chou and Talalay was used in this study. The dose–effect relationships of the individual and combined test compounds were modeled biometrically using the Median-Effect Equation based on the Mass Action Law.fa/fu = (D/Dm)^m\n(§4) In this isobolographic analysis, the combination index (CI) is a quantitative parameter used to evaluate the type and strength of interactions between multiple compounds. For all combinations, CI values were calculated across a range of affected fractions (Fa) from 0.05 to 0.95 (corresponding to 5–95% toxicity). CI values of 0.9–1.1, <0.9, and >1.1 indicate additive, synergistic, and antagonistic effects, respectively.\n(§5) The study was conducted in three independent experiments (n = 3). […] Cytotoxicity data were analyzed using one-way analysis of variance (ANOVA), followed by Dunnett’s post hoc test to assess significance relative to the negative control. The half-maximal inhibitory concentration (IC50), representing the drug or drug–CBD mixture concentration required to inhibit cell viability by 50%, was calculated using GraphPad Prism 5.0. Statistical comparisons between IC50 values were performed using ANOVA followed by Tukey’s post hoc test. Differences were considered statistically significant at p ≤ 0.05."}, "SH-SY5Y cells [2]": {"system": "SH-SY5Y cells", "assay": "lysosomal activity (NRU assay)", "conditions": "72 h", "procedure": "as §1, §2, §3, §4, §5"}, "HEK-293 cells [3]": {"system": "HEK-293 cells", "assay": "lysosomal activity (NRU assay)", "procedure": "as §1, §2, §3, §4, §5"}, "SH-SY5Y cells [4]": {"system": "SH-SY5Y cells", "conditions": "72 h, Hoechst 33342/propidium iodide", "quoted_text": "The type and extent of cell death in the control and treated cultures were evaluated using fluorochrome staining with Hoechst 33342 and propidium iodide to assess apoptosis and necrosis [88]. Dead cells were analyzed morphologically using a fluorescence microscope (Axiovert 200 M, Zeiss, Oberkochen, Germany). Cells with pink, fluorescent nuclei were considered necrotic, whereas cells with blue, fluorescent nuclei (fragmented and/or condensed chromatin) were classified as apoptotic."}, "HepG2 cells [5]": {"system": "HepG2 cells", "assay": "cell membrane integrity (LDH leakage assay)", "procedure": "as §1\n(§6) Cell membrane integrity was assessed by measuring lactate dehydrogenase (LDH) release, using a commercially available Cytotoxicity Detection Kit (LDH) (Roche Diagnostics, Warsaw, Poland). After incubation, 100 µL of culture medium (cell-free) from each well was transferred to the corresponding wells of an optically clear 96-well flat-bottom microplate, and 100 µL of reaction mixture was added to each well. The plate was then incubated for 30 min at room temperature in the dark. To stop the reaction, 50 µL of 1 M HCl was added to each well. Absorbance was measured at 492 nm using the Synergy 2 Multi-Mode Microplate Reader (BioTek® Instruments Inc., Winooski, VT, USA), with a blank as reference.\nas §3, §4, §5"}, "SH-SY5Y cells [6]": {"system": "SH-SY5Y cells", "assay": "cell membrane integrity (LDH leakage assay)", "conditions": "72 h", "procedure": "as §1, §6, §3, §4, §5"}, "HEK-293 cells [7]": {"system": "HEK-293 cells", "assay": "cell membrane integrity (LDH leakage assay)", "procedure": "as §1, §6, §3, §4, §5"}, "HepG2 cells [8]": {"system": "HepG2 cells", "assay": "mitochondrial activity (MTT assay)", "procedure": "as §1\n(§7) The metabolic activity of viable cells was assessed by measuring dehydrogenase activity. After exposing the cell cultures to the test compounds, 10 µL of MTT solution (5 mg/mL in PBS) was added to each well of a 96-well plate. After 3 h of incubation, the MTT solution was removed, and the intracellular formazan was dissolved in 100 µL of DMSO. The plate was shaken for 15 min at room temperature and transferred to a Synergy 2 Multi-Mode Microplate Reader (BioTek® Instruments Inc., Winooski, VT, USA) to measure absorbance at 570 nm, using a blank as reference. Cytotoxicity was expressed as a percentage relative to the negative control.\nas §3, §4, §5"}, "SH-SY5Y cells [9]": {"system": "SH-SY5Y cells", "assay": "mitochondrial activity (MTT assay)", "conditions": "72 h", "procedure": "as §1, §7, §3, §4, §5"}, "HEK-293 cells [10]": {"system": "HEK-293 cells", "assay": "mitochondrial activity (MTT assay)", "procedure": "as §1, §7, §3, §4, §5"}, "HepG2 cells [11]": {"system": "HepG2 cells", "conditions": "72 h exposure, cited from earlier work"}, "SH-SY5Y cells [12]": {"system": "SH-SY5Y cells", "design": "method as in earlier work", "conditions": "48 h exposure, cited from earlier work"}, "HEK-293 cells [13]": {"system": "HEK-293 cells", "assay": "DNA synthesis (BrdU assay)", "conditions": "for doxycycline concentration that inhibited DNA synthesis: HEK-293, BrdU, 72 h", "procedure": "as §1\nCell proliferation was evaluated using the BrdU assay (Cell Proliferation ELISA, BrdU [colorimetric], Roche, Switzerland) according to the manufacturer’s instructions. Briefly, BrdU was incorporated into newly synthesized DNA in place of thymidine during cell division. Incorporated BrdU was detected using an anti-BrdU antibody conjugated with peroxidase. The enzymatic reaction product was quantified by measuring absorbance. Absorbance was measured at 370 nm and 492 nm using the Synergy 2 Multi-Mode Microplate Reader (BioTek® Instruments Inc., Winooski, VT, USA), with a blank as reference.\nas §3, §4, §5"}, "[14]": {"system": "human pluripotent stem cell-derived hepatocytes", "conditions": "cited from earlier work"}, "HEK-293 cells [15]": {"system": "HEK-293 cells", "assay": "series of five cytotoxicity assays (MTT, NRU, TPC, LDH, BrdU), summary", "type": "cell-based", "conditions": "Homo sapiens, HEK293, 72 h, read-out: IC50 values, range depending on the cellular parameter assessed"}}, "note": "Read-outs that look alike come from different tables or passages of the source."}
{"smiles": "C[C@H]1c2cccc(O)c2C(=O)C2=C(O)[C@]3(O)C(=O)C(C(N)=O)=C(O)[C@@H](N(C)C)[C@@H]3[C@@H](O)[C@@H]21", "note": "[DOX, doxycycline hyclate]", "values": [{"measurement": "doxycycline concentration that inhibited lysosomal activity", "setting": "HepG2 cells [1]; HepG2, NRU, 72 h", "value": 25, "unit": "µg/mL"}, {"measurement": "IC50", "setting": "HepG2 cells [1]; Homo sapiens, HepG2, 72 h", "value": "13.4 ± 0.9", "unit": "µg/mL"}, {"measurement": "IC50", "setting": "SH-SY5Y cells [2]; Homo sapiens", "value": "> 200", "unit": "µg/mL"}, {"measurement": "doxycycline concentration at which lysosomal activity was inhibited", "setting": "SH-SY5Y cells [2]; NRU", "value": 50, "unit": "µg/mL"}, {"measurement": "doxycycline concentration that inhibited lysosomal activity", "setting": "HEK-293 cells [3]; HEK-293, NRU, 72 h", "value": 6.25, "unit": "µg/mL"}, {"measurement": "IC50", "setting": "HEK-293 cells [3]; Homo sapiens, HEK293, 72 h", "value": "12.7 ± 1", "unit": "µg/mL"}, {"measurement": "proportion of apoptotic and necrotic cells", "setting": "SH-SY5Y cells [4]", "value": "increased the proportion of apoptotic and necrotic cells"}, {"measurement": "proportion of apoptotic and necrotic cells", "setting": "SH-SY5Y cells [4]; listed as doxycycline", "value": "marked increase in apoptotic and necrotic cell populations"}, {"measurement": "doxycycline concentration that disrupted membrane integrity", "setting": "HepG2 cells [5]; HepG2, LDH, 72 h", "value": 50, "unit": "µg/mL"}, {"measurement": "IC50", "setting": "HepG2 cells [5]; Homo sapiens, HepG2, 72 h", "value": "> 200", "unit": "µg/mL"}, {"measurement": "IC50", "setting": "SH-SY5Y cells [6]; Homo sapiens", "value": "149 ± 6.5", "unit": "µg/mL"}, {"measurement": "doxycycline concentration that induced cell membrane breakdown", "setting": "SH-SY5Y cells [6]; LDH", "value": 12.5, "unit": "µg/mL"}, {"measurement": "doxycycline concentration that caused degradation of the cell membrane", "setting": "HEK-293 cells [7]; HEK-293, LDH, 72 h", "value": 6.25, "unit": "µg/mL"}, {"measurement": "IC50", "setting": "HEK-293 cells [7]; Homo sapiens, HEK293, 72 h", "value": "30.4 ± 2.7", "unit": "µg/mL"}, {"measurement": "doxycycline concentration that impaired mitochondrial function", "setting": "HepG2 cells [8]; HepG2, MTT, 72 h", "value": 50, "unit": "µg/mL"}, {"measurement": "IC50", "setting": "HepG2 cells [8]; Homo sapiens, HepG2, 72 h", "value": "> 200", "unit": "µg/mL"}, {"measurement": "IC50", "setting": "SH-SY5Y cells [9]; Homo sapiens", "value": "9.8 ± 0.9", "unit": "µg/mL"}, {"measurement": "doxycycline concentration from which mitochondrial activity was inhibited", "setting": "SH-SY5Y cells [9]; MTT, p ≤ 0.05 vs negative control", "value": 6.25, "unit": "µg/mL"}, {"measurement": "doxycycline concentration that inhibited mitochondrial activity", "setting": "HEK-293 cells [10]; HEK-293, MTT, 72 h", "value": 6.25, "unit": "µg/mL"}, {"measurement": "IC50", "setting": "HEK-293 cells [10]; Homo sapiens, HEK293, 72 h", "value": "17.4 ± 1", "unit": "µg/mL"}, {"measurement": "IC50 of mitochondrial inhibition", "setting": "HepG2 cells [11]; converted value in brackets", "value": 10.3, "unit": "µg/mL"}, {"measurement": "IC50", "setting": "HepG2 cells [11]; read-out: IC50 of mitochondrial inhibition", "value": 20, "unit": "µM"}, {"measurement": "IC50", "setting": "SH-SY5Y cells [12]; converted value in brackets", "value": 1.9, "unit": "µg/mL"}, {"measurement": "IC50", "setting": "SH-SY5Y cells [12]; read-out: IC50", "value": "3.7 ± 0.1", "unit": "µM"}, {"measurement": "doxycycline concentration that inhibited DNA synthesis", "setting": "HEK-293 cells [13]", "value": 3.12, "unit": "µg/mL"}, {"measurement": "doxycycline concentration that inhibited DNA synthesis", "setting": "HEK-293 cells [13]; listed as doxycycline", "value": 3.125, "unit": "µg/mL"}, {"measurement": "IC50", "setting": "HEK-293 cells [13]; Homo sapiens, HEK293, 72 h", "value": "8.9 ± 0.1", "unit": "µg/mL"}, {"measurement": "effect on mitochondrial membrane", "setting": "[14]", "value": "depolarized the mitochondrial membrane"}, {"measurement": "IC50", "setting": "HEK-293 cells [15]", "value": "8.9 to 30.4", "unit": "µg/mL"}]}
